Molecules are shown by their SMILES.

The target in the experiment is T1, COX-2 (Homo sapiens, UniProt P35354).
T1 construct: treated with 100 nM (nmol/l) phorbol 12-myristate 13-acetate for 6 h at 37° C. to induce COX-2 isoenzyme; endogenous in cells; host or cells: HUV-EC-C (ATCC CRL1730), PMA-induced
T1 sequence (P35354 18-604): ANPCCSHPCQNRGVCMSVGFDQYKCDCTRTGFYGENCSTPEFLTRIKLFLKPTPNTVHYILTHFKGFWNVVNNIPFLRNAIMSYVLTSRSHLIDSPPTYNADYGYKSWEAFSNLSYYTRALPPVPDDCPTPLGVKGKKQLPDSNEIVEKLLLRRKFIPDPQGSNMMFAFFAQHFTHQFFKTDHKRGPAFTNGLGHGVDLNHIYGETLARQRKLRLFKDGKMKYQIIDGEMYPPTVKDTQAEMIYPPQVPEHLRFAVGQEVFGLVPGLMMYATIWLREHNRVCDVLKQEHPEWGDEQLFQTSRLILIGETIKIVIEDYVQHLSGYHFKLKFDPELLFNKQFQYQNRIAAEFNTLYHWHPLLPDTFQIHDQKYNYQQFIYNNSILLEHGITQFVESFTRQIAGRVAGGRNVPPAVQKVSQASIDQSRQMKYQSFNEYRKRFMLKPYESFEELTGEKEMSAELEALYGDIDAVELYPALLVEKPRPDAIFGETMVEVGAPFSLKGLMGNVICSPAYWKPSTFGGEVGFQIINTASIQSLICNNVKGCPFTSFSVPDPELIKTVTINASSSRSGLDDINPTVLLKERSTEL
The experiment can be described thus: COX-2 screening in PMA-induced HUV-EC-C cells (Prostaglandine-E2 production by RIA). The class given is cell-based. The procedure: HUV-EC-C cells (a permanent endothelial cell line derived from the vein of a normal human umbilical cord; ATCC CRL1730; M. Miralpeix, M. Camacho et al., Brit. J. Pharmacol. 121 (1997), 171-180), were seeded onto 96-well plates (RPMI 1640+10% FCS) and treated with 100 nM (nmol/l) phorbol 12-myristate 13-acetate for 6 h at 37° C. to induce COX-2 isoenzyme. 50 μM (μmol/l) arachidonic acid were then added and the cells were incubated in the presence of test compounds or mixtures for 30 min at 37° C. Prostaglandine-E2 production was measured by radioimmuno assay (RIA) and the radioactivity determined with a scintillation counter (Topcount, Packard) using a liquid scintillation cocktail (Packard).
The results obtained are expressed as a percent of control values and as a percent inhibition of control values obtained in the presence of the test compounds. The control values correspond to the COX-2 activity of HUV-EC-C cells after stimulation with Phorbol Myristate Acetate (PMA) during 6 hours at 37° C. (can be done also with Tumor Necrosis Factor type alpha: TNFα) in absence of test compound.
The concentration causing a half-maximal inhibition of control values (IC50 value) and Hill coefficients (nH) were determined for the reference compounds (cycloheximide) by nonlinear regression analysis of their inhibition curves. These parameters were obtained by Hill equation curve fitting. […]

For `N[C@@H](CS)C(=O)O` [Cysteine], the “cyclooxygenase-2 inhibiting activity (in words)” value was “no effect”.

The record behind these values is US20070110818A1, “Milk fractions and milk preparations for treating and/or preventing cox-2 mediated diseases” (priority 2003, published 2007).
